We go through three compounds from patent US20130296311A1, “INHIBITORS OF HCV NS5A” (PRESIDIO PHARMACEUTICALS, INC., priority 2010, published 2013).

In the assay the test system is HCV 1b_Huh-Luc/Neo-ET cell line persistently expressing a bicistronic genotype 1b replicon in Huh 7 cells. The experiment in a line: HCV replicon assay (luciferase readout, 72 h). It counts as cell-based, HCV genotype 1b. Conditions: Hepatitis C virus, Huh-7, 72 h, read-out: Inhibition of HCV genotype 1b. Summed up: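 Huh 7 cells carrying a bicistronic genotype 1b luciferase/neo replicon received compound in triplicate the day after plating. After 72 h, replicon levels were read as Bright-Glo luciferase activity, expressed as % of control; EC50 was fitted with a four-parameter logistic and determined several times.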
In the case of `COC(=O)N[C@H](C(=O)N1CCC[C@H]1c1ncc(-c2ccc(C#Cc3ccc(-c4cnc([C@@H]5CCCN5C(=O)[C@@H](Nc5ncccn5)C(C)C)[nH]4)cc3)cc2)[nH]1)C(C)C` [Compound 1003], the EC50 was below 1 nM.

Turning to `O=C(N[C@@H](C(=O)N1CCC[C@H]1c1ncc(C#Cc2ccc(-c3cnc([C@@H]4CCCN4C(=O)[C@H](NC(=O)N4CCOCC4)c4ccccc4)[nH]3)cc2)[nH]1)c1ccccc1)N1CCOCC1` [Compound 102], the EC50 lay within 1 to 9.9 nM.

Take `COC(=O)N[C@H](C(=O)N1CCOC[C@H]1c1ncc(-c2ccc(C#Cc3ccc4nc([C@@H]5CCCN5C(=O)[C@@H](NC(=O)OC)C(C)C)[nH]c4c3)cc2)[nH]1)C(C)C` [Compound 1027]: the EC50 was below 1 nM.
